Data: ChEMBL document CHEMBL1122639, “Racemic and optically active 2,9-dimethyl-5-(m-hydroxyphenyl)morphans and pharmacological comparison with the 9-demethyl homologues” (1984)
The source made the active and inactive calls. The rule behind the calls is not given here.

Legend:
Mus musculus [1] = assay: Compound was administered subcutaneously and was evaluated for opioid antagonist activity (versus morphine) by tail-flick (TF) antagonism test; I denotes Inactive at 30 mg/kg; format: functional, organism-based; parameters: dose 30 mg/kg
Mus musculus [2] = assay: Compound was administered subcutaneously and was evaluated for opioid agonist activity by antinociceptive hotplate (HP) assay in mice; I denotes Inactive at 30 mg/kg; format: functional, organism-based; parameters: dose 30 mg/kg
Mus musculus [3] = assay: Compound was administered subcutaneously and was evaluated for opioid agonist activity by antinociceptive p-phenylquinone-writhing (PPQ) assay in mice; I denotes Inactive at 30 mg/kg; format: functional, organism-based; parameters: dose 30 mg/kg
Mus musculus [4] = assay: Compound was administered subcutaneously and was evaluated for opioid agonist activity by antinociceptive tail-flick (TF) assay in mice; I denotes Inactive at 30 mg/kg; format: functional, organism-based; parameters: dose 30 mg/kg
Mus musculus [5] = assay: Compound was administered subcutaneously and was evaluated for opioid agonist activity by antinociceptive hotplate (HP) assay in mice; format: functional
Mus musculus [6] = assay: Compound was administered subcutaneously and was evaluated for opioid agonist activity by antinociceptive p-phenylquinone-writhing (PPQ) assay in mice; format: functional
Mus musculus [7] = assay: Compound was administered subcutaneously and was evaluated for opioid agonist activity by antinociceptive tail-flick (TF) assay in mice; format: functional
Mus musculus [8] = assay: Compound was administered subcutaneously and was evaluated for opioid antagonist activity (versus morphine) by tail-flick (TF) antagonism test; format: functional
Mus musculus [9] = assay: Compound was administered subcutaneously and was evaluated for opioid antagonist activity (versus morphine) by tail-flick (TF) antagonism test.; format: functional
Mus musculus [10] = assay: Compound was administered subcutaneously and was evaluated for opioid agonist activity by antinociceptive hotplate (HP) assay in mice.; format: functional; conditions: sc
Mus musculus [11] = assay: Compound was administered subcutaneously and was evaluated for opioid agonist activity by antinociceptive hotplate (HP) assay in mice,; format: functional; conditions: sc
Mus musculus [12] = assay: Compound was administered subcutaneously and was evaluated for opioid agonist activity by antinociceptive p-phenylquinone-writhing (PPQ) assay in mice,; format: functional; conditions: sc
Mus musculus [13] = assay: Compound was administered subcutaneously and was evaluated for opioid agonist activity by antinociceptive tail-flick (TF) assay in mice.; format: functional; conditions: sc
[14] = Mus musculus, sc, read-out: ED50

COc1cccc([C@@]23CCC[C@H]([C@H]2C)N(C)CC3)c1
ED50 (Mus musculus [1]): inactive
ED50 (Mus musculus [2]): inactive
ED50 (Mus musculus [3]): inactive
ED50 (Mus musculus [4]): inactive

Br.CN1CC[C@]2(c3cccc(O)c3)CCC[C@@H]1C2 (stereo in doubt; (+))
ED50 (Mus musculus [5]): 0.4 mg/kg
ED50 (Mus musculus [6]; [14]): 0.5 mg/kg
ED50 (Mus musculus [7]): 1.1 mg/kg

CN1CC[C@]2(c3cccc(O)c3)CCC[C@@H]1C2 (stereo in doubt; (+))
AD50 (Mus musculus [1]): inactive

Br.CN1CC[C@]2(c3cccc(O)c3)CCC[C@@H]1C2 (stereo in doubt; (-))
ED50 (Mus musculus [5]): 1.7 mg/kg
ED50 (Mus musculus [6]): 0.9 mg/kg
ED50 (Mus musculus [7]): 5.4 mg/kg

CN1CC[C@]2(c3cccc(O)c3)CCC[C@@H]1C2 (stereo in doubt; (-))
AD50 (Mus musculus [1]): inactive

C[C@@H]1[C@H]2CCC[C@@]1(c1cccc(O)c1)CCN2C.Cl (stereo in doubt; form 1)
AD50 (Mus musculus [8]): 4.5 mg/kg

C[C@@H]1[C@H]2CCC[C@@]1(c1cccc(O)c1)CCN2C (stereo in doubt; form 1)
ED50 (Mus musculus [2]): inactive
ED50 (Mus musculus [3]): inactive
ED50 (Mus musculus [4]): inactive

C[C@@H]1[C@H]2CCC[C@@]1(c1cccc(O)c1)CCN2C.Cl (stereo in doubt; form 2)
ED50 (Mus musculus [5]; [14]): 10 mg/kg
ED50 (Mus musculus [6]; [14]): 1.9 mg/kg

C[C@@H]1[C@H]2CCC[C@@]1(c1cccc(O)c1)CCN2C (stereo in doubt; form 2)
AD50 (Mus musculus [1]): inactive
ED50 (Mus musculus [4]): inactive

C[C@@H]1[C@H]2CCC[C@@]1(c1cccc(O)c1)CCN2C.Cl (stereo in doubt; form 3)
AD50 (Mus musculus [9]): 5 mg/kg
ED50 (Mus musculus [10]): 9.3 mg/kg

C[C@@H]1[C@H]2CCC[C@@]1(c1cccc(O)c1)CCN2C (stereo in doubt; form 3)
ED50 (Mus musculus [3]): inactive
ED50 (Mus musculus [4]): inactive

COc1ccc2c3c1O[C@H]1[C@@H](O)C=C[C@H]4[C@@H](C2)N(C)CC[C@@]341 [CODEINE]
AD50 (Mus musculus [1]): inactive
ED50 (Mus musculus [11]): 6.8 mg/kg
ED50 (Mus musculus [12]): 1.4 mg/kg
ED50 (Mus musculus [13]): 14.5 mg/kg

CN1CC[C@]23c4c5ccc(O)c4O[C@H]2[C@@H](O)C=C[C@H]3[C@H]1C5 [MORPHINE]
AD50 (Mus musculus [1]): inactive
ED50 (Mus musculus [12]): 0.2 mg/kg

C=CCN1CC[C@]23c4c5ccc(O)c4O[C@H]2[C@@H](O)C=C[C@H]3[C@H]1C5 [NALORPHINE]
AD50 (Mus musculus [9]): 2.6 mg/kg
ED50 (Mus musculus [6]; [14]): 0.6 mg/kg
ED50 (Mus musculus [4]): inactive
